Results as given in ChEMBL document CHEMBL5725219, “Compounds and methods for skin repair” (2017).
pEC50, pKi: −log10 of the molar value.

Experiments:
[1] = target: Prostaglandin E2 receptor EP2 subtype (Homo sapiens, UniProt P43116); assay: (§1) FLIPR Assay: Cells were seeded at a density of 5×10^4 cells per well in Biocoat® Poly-D-lysine-coated black-wall, clear-bottom 96-well plates (Becton-Dickinson) and allowed to attach overnight in an incubator at 37° C. Cells were then washed two times with HBSS-HEPES buffer (Hanks Balanced Salt Solution without bicarbonate and phenol red, 20 mM HEPES, pH 7.4) using a Denley Cellwash plate washer (Labsystems). After 45 minutes of dye-loading in the dark, using the calcium-sensitive dye Fluo-4 AM at a final concentration of […], plates were washed four times with HBSS-HEPES buffer to remove excess dye leaving […] in each well. Plates were re-equilibrated to 37° C. for a few minutes.Cells were excited with an Argon laser at 488 nm, and emission was measured through a 510-570 nm bandwidth emission filter (FLIPR™, Molecular Devices, Sunnyvale, Calif.). Drug solution was added in a 50 μl volume to each well to give the desired final concentration. The peak increase in fluorescence intensity was recorded for each well. On each plate, four wells each served as negative (HBSS-HEPES buffer) and positive controls (standard agonists: BW245C (hDP); PGE2 (hEP1; hEP2/Gqs5; hEP3A/Gqi5; hEP4/Gqs5); PGF2a (hFP); carbacyclin (hIP); U-46619 (hTP), depending on receptor). The peak fluorescence change in each drug-containing well was then expressed relative to the controls.
[2] = target: T1, Prostaglandin E2 receptor EP4 subtype (Homo sapiens, UniProt P35408); assay: as §1
[3] = target: T1, Prostaglandin E2 receptor EP4 subtype; assay: Radioligand Binding Assay: HEK-293 cells stably expressing the human or feline FP receptor, or EP1, EP2, or EP4 receptors were washed with TME buffer, scraped from the bottom of the flasks, and homogenized for 30 sec using a Brinkman PT 10/35 polytron. TME buffer was added to achieve a final 40 ml volume in the centrifuge tubes (the composition of TME is 100 mM TRIS base, 20 mM MgCl2, […]; 10N HCl is added to achieve a pH of 7.4).The cell homogenate was centrifuged at 19000 r.p.m. for 20 min at 4° C. using a Beckman Ti-60 rotor. The resultant pellet was resuspended in TME buffer to give a final 1 mg/ml protein concentration, as determined by Biorad assay. Radioligand binding competition assays vs. [3H-]17-phenyl PGF2a (5 nM) were performed in a 100 μl volume for 60 min. Binding reactions were started by adding plasma membrane fraction. The reaction was terminated by the addition of 4 ml ice-cold TRIS-HCl buffer and rapid filtration through glass fiber GF/B filters using a Brandel cell harvester. The filters were washed 3 times with ice-cold buffer and oven dried for one hour.[3H] PGE2 (specific activity 180 Ci mmol) was used as the radioligand for EP receptors. [3H] 17-phenyl PGF2a was employed for FP receptor binding studies. Binding studies employing EP1, EP2, EP4 and FP receptors were performed in duplicate in at least three separate experiments. A 200 μl assay volume was used. […]

T1 sequence (P35408 whole entry): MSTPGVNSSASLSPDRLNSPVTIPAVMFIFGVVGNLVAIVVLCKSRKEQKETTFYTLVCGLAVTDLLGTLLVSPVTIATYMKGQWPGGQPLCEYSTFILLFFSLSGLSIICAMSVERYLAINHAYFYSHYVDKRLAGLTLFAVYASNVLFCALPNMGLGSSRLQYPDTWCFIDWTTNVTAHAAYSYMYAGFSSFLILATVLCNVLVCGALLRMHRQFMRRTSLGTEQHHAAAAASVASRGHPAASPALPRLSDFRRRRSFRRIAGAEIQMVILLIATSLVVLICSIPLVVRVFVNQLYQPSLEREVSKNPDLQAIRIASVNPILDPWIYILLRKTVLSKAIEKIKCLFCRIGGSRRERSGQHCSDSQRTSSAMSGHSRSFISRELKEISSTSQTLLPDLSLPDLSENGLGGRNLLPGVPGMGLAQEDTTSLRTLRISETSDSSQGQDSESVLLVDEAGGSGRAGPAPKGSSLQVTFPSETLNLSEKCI
Prostaglandin E2 receptor EP2 subtype, sequence (P43116 whole entry): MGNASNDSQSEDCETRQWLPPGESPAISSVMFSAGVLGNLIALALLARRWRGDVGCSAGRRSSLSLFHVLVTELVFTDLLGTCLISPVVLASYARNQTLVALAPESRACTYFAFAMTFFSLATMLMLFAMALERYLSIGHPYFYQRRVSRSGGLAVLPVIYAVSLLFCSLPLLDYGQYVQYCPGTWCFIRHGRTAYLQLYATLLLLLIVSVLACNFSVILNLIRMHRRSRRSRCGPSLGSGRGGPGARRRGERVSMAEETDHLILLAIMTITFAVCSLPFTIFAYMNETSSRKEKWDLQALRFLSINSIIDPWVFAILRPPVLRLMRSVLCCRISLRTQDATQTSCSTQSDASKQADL

pKi [1]	pEC50 [2]	pKi [2]	pKi [3]	pEC50 [1]	Structure (SMILES)
–	–	–	6.81	–	COc1cc(CO)cc(CN2CCc3cccc(CCc4ccc(C(=O)O)s4)c32)c1
7.39	5.90	6.43	–	–	COc1cccc(CCN2CCc3cccc(CCc4ccc(C(=O)O)cc4)c32)c1
7.92	6.69	6.39	–	7.92	O=C(O)c1ccc(CCc2cccc3c2N(Cc2cc(F)cc(F)c2)CC3)cc1
< 5.00	< 5.00	6.35	–	–	COc1cccc(CC(=O)N2CCc3cccc(CCc4ccc(C(=O)O)cc4)c32)c1
–	< 5.00	–	–	–	COc1cc(CO)cc(S(=O)(=O)N2CCc3cccc(CCc4ccc(C(=O)O)cc4)c32)c1
6.69	5.80	5.96	–	–	O=C(O)c1ccc(CCc2cccc3c2N(CCc2ccccc2)CC3)cc1
6.59	5.79	5.77	–	–	COc1cccc(Cn2ccc3cccc(CCc4ccc(C(=O)O)cc4)c32)c1
8.15	6.73	6.37	–	7.82	O=C(O)c1ccc(CCc2cccc3c2N(Cc2cccc(C(F)(F)F)c2)CC3)cc1
5.16	< 5.00	5.02	–	–	COc1cccc(CN2Cc3cccc(CCc4ccc(C(=O)O)cc4)c3C2)c1
7.85	8.70	8.70	–	–	COc1cc(CN2CCc3cc(F)cc(CCc4ccc(C(=O)O)cc4)c32)cc(OC)c1
6.09	–	5.31	–	6.74	COc1cc(OC)cc(C(=O)N2CCc3cccc(CCc4ccc(C(=O)O)cc4)c32)c1
7.85	6.35	6.21	–	7.54	O=C(O)c1ccc(CCc2cccc3c2N(Cc2ccc(F)cc2)CC3)cc1
9.52	–	5.92	–	7.96	O=C(O)c1ccc(CCc2cccc3c2N(Cc2cc(C(F)(F)F)cc(C(F)(F)F)c2)CC3)cc1
7.30	–	6.15	–	–	COc1cccc(CN2CCc3cccc(CCc4ccc(C(=O)O)s4)c32)c1
7.64	6.75	6.91	–	–	COc1cccc(CN2CCc3cccc(CCc4ccc(C(=O)O)cc4)c32)c1

Structure (SMILES)	pKi [1]	pEC50 [2]	pKi [2]	pKi [3]	pEC50 [1]
COc1cccc(CCN2Cc3cccc(CCc4ccc(C(=O)O)cc4)c3C2)c1	5.95	< 5.00	< 5.00	–	–
COc1cccc(S(=O)(=O)N2CCc3cccc(CCc4ccc(C(=O)O)cc4)c32)c1	6.24	< 5.00	< 5.00	–	–
COc1cc(OC)cc(N2Cc3cccc(CCc4ccc(C(=O)O)cc4)c3C2)c1	–	–	5.41	–	–
O=C(O)c1ccc(CCc2cccc3c2N(Cc2cccc(F)c2)CC3)cc1	7.42	6.91	6.05	–	7.46
